According to paper PMC12806164, “Epithelial Heparan Sulfate Promotes Staphylococcus aureus Corneal Infection by Inhibiting Cathelicidins” (Proteoglycan research, 2025):
No end group written: not given here.

How the values were obtained:
[1] = Alexa 647-CRAMP binding to Affi-Gel HP beads, direct and with unlabeled peptides (flow cytometry); conditions: 20-fold excess (5 μM) unlabeled peptide, 250 nM Alexa 647-labeled CRAMP, 1 h at room temperature, n = 3–4
Procedure: FIGURE 5 | Secondary structure of mature CRAMP is required for binding to heparan compounds. (A) Sequence and pI (in parentheses) of the 34 amino acid long mature CRAMP and four 10- or 20-mer peptides that span amino acids 4–13 (CR-1), 13–22 (CR-2), 24–33 (CR-3), or 4–23 (CR-4) of mature CRAMP. (B) Affi-Gel HP beads were incubated with 250 nM of Alexa 647-labeled CRAMP without or with 5 μM of unlabeled CRAMP, heat-treated CRAMP, CR-1, CR-2, CR-3, or CR-4 peptides for 1 h at room temperature. […] (C) ITC analyses of heat-treated CRAMP binding to HP. The fitted heat curve of titrating CRAMP binding to HP is shown. TEXT PRINTED IN THE PICTURE: (A) CRAMP: (10.0) | (A) CR-1: (9.6) | (A) CR-2: (10.6) | (A) CR-3: (5.9) | (A) CR-4: (10.4) DOUBTS OF THE COPYIST ABOUT THIS PICTURE: Panel A: the numbers in brackets after the peptide names are printed without any measure or unit in the picture, so they are given as printed, without a measure.
(§1) Affi-Gel HP beads were washed and resuspended in PBS. Affi-Gel HP beads (20 μL) were incubated with 0.5 μM Alexa 647-labeled CRAMP without or with 20 μg/mL HP, chemically desulfated HP, or chemoenzymatically sulfated H for 1 h at room temperature. Affi-Gel HP beads were washed with PBS, and the Alexa 647-labeled CRAMP bound to them was assessed by flow cytometry.

S. aureus USA300 [2] = assay: Bacteria live/dead staining (BaclightGreen / propidium iodide); format: cell-based, Staphylococcus aureus; conditions: 0.5 μM CRAMP without or with 5 μg/mL compound, 30 min at room temperature, propidium iodide 10 μg/mL
Procedure: (§2) (A) Schematics of HS/HP structure. […] (F) BaclightGreen-labeled S. aureus (~400 cfu) was incubated with 0.5 μM CRAMP without or with 5 μg/mL HP, NDS-HP, 2ODS-HP, 6ODS-HP, H, NS-H, or NS2OS-H for 30 min at room temperature. Bacteria were washed, incubated with 10 μg/mL propidium iodide for 15 min at 4°C, and live (green) and dead (red) bacteria were visualized by fluorescence microscopy.
S. aureus USA300 was stained by BaclightGreen (Thermo Fisher) following the manufacturer’s instructions. Briefly, an overnight culture of S. aureus was resuspended in PBS and incubated with 100 μM BaclightGreen for 15 min at room temperature. […] Bacteria were mounted on glass slides and images were captured with a fluorescence microscope (Zeiss Axiovert 40 CFL). […]
Figure S1. A) CRAMP expression was measured in uninfected Wt corneas or Wt corneas isolated at 4 h post-S. aureus USA300 infection. […] Total RNA was purified from the corneal epithelium, and 1 ng of total RNA was analyzed by qRT-PCR for CRAMP or β-actin expression (n = 3, **p < 0.01). […] Bacterial killing was measured by plating serial dilutions onto TSA plates and counting colonies the following day. […] Bacteria were washed three times with buffer, incubated with 0.5 μM CRAMP for 2 h at 37°C, and % bacterial killing was determined by plating serial dilutions of samples (n = 4). […] Images were captured with a fluorescence microscope (Zeiss Axiovert 40 CFL). […]

CAP-18 = assay: Inhibition by glycosaminoglycans of S. aureus killing by CAP-18; format: cell-based, rabbit; conditions: 5 μg/mL glycosaminoglycan, 0.5 μM CAP-18, ~500 cfu USA300, phosphate buffer pH 7.4, 2 h at 37°C, n = 6
Procedure: (§3) Samples were plated onto TSA plates, and viable bacteria (cfu) were counted the following day. Data are shown as % bacterial killing, where killing activity in the presence of cathelicidin only represents 100% (n = 6, *p < 0.05, ****p < 0.0001, one-way ANOVA, multiple comparisons).
as §2
(§4) Late log phase S. aureus USA300 was washed with phosphate buffer (8.2 mM Na2HPO4, 1.8 mM KH2PO4, pH 7.4) and approximately 500 cfu were incubated with cathelicidins with or without excess GAGs for 2 h at 37°C as indicated. Viable bacteria were enumerated by plating onto TSA plates and counting colonies the following day. Results are shown as % bacterial killing, where 100% killing represents data derived from the group of bacteria incubated with cathelicidins only.

CRAMP [3] = assay: Alexa 647-CRAMP binding to fixed S. aureus, inhibition by glycosaminoglycans (flow cytometry); design: species or system mouse; conditions: 0.5 μM Alexa 647-conjugated CRAMP
Procedure: Alexa 647-conjugated CRAMP (0.5 μM) was incubated with 2% paraformaldehyde-fixed Staphylococcus aureus USA300 without or with 5 μg/mL HP, HS, CS, DS, NDS-HP, 6ODS-HP, or 2ODS-HP for 1 h at room temperature. S. aureus-associated CRAMP fluorescence was analyzed by flow cytometry. Results are shown as % Alexa CRAMP binding (n = 3, ****p < 0.0001).
Alexa 647 fluorophore was conjugated to CRAMP using the Lightning-Link Rapid FluoProbes647H labeling kit following the manufacturer’s instructions. S. aureus USA300 fixed in 2% paraformaldehyde for 20 min was resuspended in 20 μL of phosphate buffer and incubated with 0.5 μM of Alexa 647-labeled CRAMP for 30 min at room temperature without or with glycosaminoglycans. Unbound Alexa 647-labeled CRAMP was removed by washing with phosphate buffer, and Alexa 647-labeled CRAMP bound to bacteria was assessed by flow cytometry.
(§5) Figure S1. A) CRAMP expression was measured in uninfected Wt corneas or Wt corneas isolated at 4 h post-S. aureus USA300 infection. Briefly, eyes were enucleated, corneas were dissected, and isolated corneas were incubated with 10 mg/ml dispase II overnight at 4°C to peel off the corneal epithelium. Total RNA was purified from the corneal epithelium, and 1 ng of total RNA was analyzed by qRT-PCR for CRAMP or β-actin expression (n = 3, **p < 0.01). […] Bacterial killing was measured by plating serial dilutions onto TSA plates and counting colonies the following day. Results are shown as % bacterial survival (n = 4). Figure S2. […] Bacterial killing (%) was enumerated by plating serial dilutions onto TSA plates and counting colonies the following day (n = 5). B) Effects of pre-incubating S. aureus with glycosaminoglycans on bacterial killing by cathelicidins were examined by incubating 500 cfu of USA300 without or with 5 μg/ml HS, HP, DS, or CS for 30 min at 37°C. Bacteria were washed three times with buffer, incubated with 0.5 μM CRAMP for 2 h at 37°C, and % bacterial killing was determined by plating serial dilutions of samples (n = 4). Figure S3. S. aureus USA300 stained with BaclightGreen was incubated with 0.5 μM CRAMP in the absence or presence of 5 μg/ml HP, NDS-HP, 2ODS-HP, 6ODS-HP, H, NS-H, or NS2OS-H for 30 min at room temperature. Bacteria were washed and incubated with 10 μg/ml propidium iodide for 15 min on ice. Images were captured with a fluorescence microscope (Zeiss Axiovert 40 CFL). Quantification of % dead bacteria (out of total bacteria in field) is shown at the bottom. Figure S4. Alexa 647-conjugated CRAMP (0.5 μM) was incubated with fixed S. aureus USA300 without or with 5 μg/ml of the indicated glycosaminoglycans and chemically-desulfated HP compounds for 1 h at room temperature. S. aureus-associated CRAMP fluorescence was analyzed by flow cytometry. Representative FACS density plots are shown where heparan compounds containing 2-O-sulfated motifs decreased Alexa CRAMP binding by over 79% compared to the control (No GAG), except for NDS-HP where the reduction was approximately 65%. Fig. S5. Relative mRNA levels of A) Ndst1 and B) Sdc1 in the corneal epithelium of Hs2st^fl/fl, Krt12Cre, and Hs2st^fl/fl/Krt12Cre mice (n = 3).

LL-37 = assay: Inhibition by glycosaminoglycans of S. aureus killing by LL-37; format: cell-based, human; conditions: 5 μg/mL glycosaminoglycan, 1 μM LL-37, ~500 cfu USA300, phosphate buffer pH 7.4, 2 h at 37°C, n = 6
Procedure: as §3, §2, §4

CRAMP [4] = assay: Inhibition by glycosaminoglycans of S. aureus killing by CRAMP; format: cell-based, mouse; conditions: 5 μg/mL glycosaminoglycan, 0.5 μM CRAMP, ~500 cfu USA300, phosphate buffer pH 7.4, 2 h at 37°C, n = 6
Procedure: as §3, §2, §4, §5

CRAMP [5] = assay: Alexa 647-CRAMP binding to Affi-Gel HP beads, competition by HP compounds (flow cytometry); design: species or system mouse; conditions: 20 μg/mL competitor, 0.5 μM Alexa 647-conjugated CRAMP, 1 h at room temperature, n = 4
Procedure: (§6) FIGURE 4 | 2-O-sulfated heparan compounds directly bind to CRAMP with high affinity. Alexa 647-conjugated CRAMP (0.5 μM) was incubated with Affi-Gel HP beads without or with 20 μg/mL of HP, NDS-HP, 2ODS-HP, or 6ODS-HP for 1 h at room temperature. CRAMP fluorescence associated with Affi-Gel HP beads was analyzed by flow cytometry. Results are shown as (A) % CRAMP binding and (B) mean fluorescence intensity (MFI) of CRAMP binding (n = 4, ***p < 0.001, ****p < 0.0001). ITC analyses for CRAMP binding to HP were performed at 25°C using a MicroCal iTC 200 titration calorimetry. The fitted heat curves of titrating CRAMP binding to (C) HP and (D) 2ODS-HP are shown.
as §1

CRAMP [6] = assay: ITC of HP and 2ODS-HP binding to CRAMP; design: species or system mouse; conditions: 25.0°C, 50 mM HEPS pH 7.4, 150 mM NaCl
Procedure: as §6
ITC of CRAMP binding to HP and modified HP was carried out at 25.0°C using a MicroCal iTC 200 titration calorimetry system (Malvern, UK). A stock solution of CRAMP was diluted to 12.5 μM in 50 mM HEPS, pH 7.4, 150 mM NaCl, and approximately 300 μL of this solution was loaded into the ITC cell and titrated with 25 μM of HP or 2ODS-HP in the same buffer. Briefly, titration injection of HP or 2ODS-HP consisted of a first injection of 0.4 μL followed by 18 consecutive injections of 2 μL of 0.8 s duration and with a 2.5 min interval between injections. […] The enthalpy change of binding (ΔH), the binding affinity, and the binding stoichiometry were determined.

SMAP-29 = assay: Inhibition by glycosaminoglycans of S. aureus killing by SMAP-29; format: cell-based, sheep; conditions: 5 μg/mL glycosaminoglycan, 0.5 μM SMAP-29, ~500 cfu USA300, phosphate buffer pH 7.4, 2 h at 37°C, n = 6
Procedure: as §3, §2, §4

S. aureus USA300 [7] = assay: Pre-incubation of S. aureus with glycosaminoglycans, washing, then killing by cathelicidin; format: cell-based, Staphylococcus aureus; conditions: 5 μg/ml glycosaminoglycan pre-incubated with 500 cfu USA300 30 min at 37°C, washed three times, then 0.5 μM CRAMP 2 h at 37°C, n = 4
Procedure: Figure S1. A) CRAMP expression was measured in uninfected Wt corneas or Wt corneas isolated at 4 h post-S. aureus USA300 infection. Briefly, eyes were enucleated, corneas were dissected, and isolated corneas were incubated with 10 mg/ml dispase II overnight at 4°C to peel off the corneal epithelium. Total RNA was purified from the corneal epithelium, and 1 ng of total RNA was analyzed by qRT-PCR for CRAMP or β-actin expression (n = 3, **p < 0.01). […] Bacterial killing was measured by plating serial dilutions onto TSA plates and counting colonies the following day. Results are shown as % bacterial survival (n = 4). Figure S2. […] Bacterial killing (%) was enumerated by plating serial dilutions onto TSA plates and counting colonies the following day (n = 5). B) Effects of pre-incubating S. aureus with glycosaminoglycans on bacterial killing by cathelicidins were examined by incubating 500 cfu of USA300 without or with 5 μg/ml HS, HP, DS, or CS for 30 min at 37°C. Bacteria were washed three times with buffer, incubated with 0.5 μM CRAMP for 2 h at 37°C, and % bacterial killing was determined by plating serial dilutions of samples (n = 4). Figure S3. […] Images were captured with a fluorescence microscope (Zeiss Axiovert 40 CFL). Quantification of % dead bacteria (out of total bacteria in field) is shown at the bottom. […] S. aureus-associated CRAMP fluorescence was analyzed by flow cytometry. […]

Substance	Inhibition of Alexa CRAMP binding to HP beads by unlabeled peptide [1]	Live (green) / dead (red) state of most bacteria (S. aureus USA300 [2])	Inhibition of S. aureus killing by CAP-18 (CAP-18)	Decrease of MFI of Alexa-labeled CRAMP binding to S. aureus compared to control (CRAMP [3]; 5 μg/mL glycosaminoglycan, 2% paraformaldehyde-fixed S. aureus USA300, 1 h at room temperature, n = 3)	Reduction of proportion of CRAMP-bound bacteria (Alexa CRAMP binding, FACS density plots) compared to No GAG (CRAMP [3]; 5 μg/ml glycosaminoglycan, fixed S. aureus USA300, 1 h at room temperature, representative plots)	Inhibition of S. aureus killing by LL-37 (LL-37)	Inhibition of S. aureus killing by CRAMP (CRAMP [4])	Inhibition of CRAMP binding to HP beads (CRAMP [5])	Reduction of mean fluorescence intensity (MFI) of CRAMP binding to HP beads compared to control (CRAMP [5])	Heat changes on incubation with CRAMP (ITC) (CRAMP [6]; 12.5 μM CRAMP titrated with 25 μM 2ODS-HP)	Inhibition of S. aureus killing by SMAP-29 (SMAP-29)	Inhibition of bacterial killing by cathelicidins after pre-incubation with bacteria and washing away (S. aureus USA300 [7])	Kd (CRAMP [6]; 12.5 μM CRAMP in cell, titrated with 25 μM HP, read-out: Binding affinity for CRAMP binding to HP (ITC))
GLLRKGGEKIGEKLKKIGQKIKNFFQKLVPQPEQ [CRAMP]	92.7%	dead											
2-O-desulfated HP [2ODS-HP]			significantly inhibited the ability of HP to inhibit	no effect	not	significantly inhibited the ability of HP to inhibit	significantly inhibited the ability of HP to inhibit	25%	not	did not produce significant heat changes	significantly inhibited the ability of HP to inhibit		
CR-4: 20-mer peptide, amino acids 4–23 of mature CRAMP (LAGLLRKGGEKIGEKLKKIG; Cathelicidin antimicrobial peptide; UniProt P51437 138-157, looked up, fragment)	34.7%												
heparin [HP]			over 70%			over 70%	over 70%	over 75%			over 70%	did not inhibit	45.2 nM
